Test results: PubChem BioAssay (NCI)
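1) Cells in 96-well plates. 2) Compound, 48 h, 5 concentrations. 3) Linear interpolation between surrounding doses. 4) Unreached endpoint = highest concentration. TGI: concentration producing complete growth inhibition.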

Key:
Experiment in all cases: NCI anticancer screen, dose series, 48 h
[1] = system: NCI-H226 lung
[2] = system: OVCAR-8 ovarian
[3] = system: HS 578T breast
[4] = system: T-47D breast
[5] = system: KM12 colon
[6] = system: CAKI-1 renal
[7] = system: MCF7 breast
[8] = system: NCI-H460 lung
[9] = system: HCT-15 colon
[10] = system: IGROV1 ovarian
[11] = system: SK-MEL-28 melanoma
[12] = system: K-562 leukemia
[13] = system: OVCAR-3 ovarian
[14] = system: MDA-MB-231 breast
[15] = system: RPMI-8226 leukemia
[16] = system: NCI-H23 lung
[17] = system: CCRF-CEM leukemia
[18] = system: SNB-75 CNS
[19] = system: UACC-62 melanoma
[20] = system: MALME-3M melanoma
[21] = system: HL-60(TB) leukemia
[22] = system: UO-31 renal
[23] = system: OVCAR-4 ovarian
[24] = system: SF-539 CNS
[25] = system: HOP-62 NSCLC
[26] = system: MOLT-4 leukemia
[27] = system: PC-3 prostate
[28] = system: SK-OV-3 ovarian
[29] = system: NCI/ADR-RES ovarian
[30] = system: SF-295 CNS
[31] = system: NCI-H522 lung
[32] = system: SK-MEL-2 melanoma
[33] = system: 786-0 renal
[34] = system: M14 melanoma
[35] = system: SF-268 CNS
[36] = system: ACHN renal
[37] = system: A549 NSCLC
[38] = system: U251 CNS
[39] = system: COLO 205 colon
[40] = system: RXF 393 renal
[41] = system: EKVX NSCLC
[42] = system: SR leukemia
[43] = system: UACC-257 melanoma
[44] = system: BT-549 breast
[45] = system: SN12C renal
[46] = system: DU-145 prostate
[47] = system: SW-620 colon
[48] = system: TK-10 renal
[49] = system: SNB-19 CNS
[50] = system: HOP-92 NSCLC
[51] = system: SK-MEL-5 melanoma
[52] = system: LOX IMVI melanoma
[53] = system: HCT-116 colon
[54] = system: MDA-N
[55] = system: HT29 colon
[56] = system: OVCAR-5 ovarian
[57] = system: HCC-2998 colon
[58] = system: A498 renal
[59] = system: MDA-MB-435

O=Cc1ccc2c(c1)CC1(C2)Cc2ccc3c(c2C1)CCC3 (stereo unspecified)
TGI [1]: 37.8 µM | TGI [2]: 29.8 µM | TGI [3]: 21.5 µM | TGI [4]: > 85.3 µM | TGI [5]: 33.1 µM | TGI [6]: 46.8 µM | TGI [7]: 22.8 µM | TGI [8]: 38.7 µM | TGI [9]: 34.4 µM | TGI [10]: 41.3 µM | TGI [11]: 29.5 µM | TGI [12]: 25.6 µM | TGI [13]: 19.5 µM | TGI [14]: 14.2 µM | TGI [15]: 27.9 µM | TGI [16]: 33.6 µM | TGI [17]: 21.1 µM | TGI [18]: 28.9 µM | TGI [19]: 18.8 µM | TGI [20]: 21.8 µM | TGI [21]: > 26.9 µM | TGI [22]: 25 µM | TGI [23]: 16.9 µM | TGI [24]: 26.1 µM | TGI [25]: 27.7 µM | TGI [26]: 31.9 µM | TGI [27]: 18.2 µM | TGI [28]: 45.1 µM | TGI [29]: 27.8 µM | TGI [30]: 19.5 µM | TGI [31]: > 83.6 µM | TGI [32]: 14 µM | TGI [33]: 28.3 µM | TGI [34]: 21.3 µM | TGI [35]: 41.9 µM | TGI [36]: > 100 µM | TGI [37]: > 100 µM | TGI [38]: 22.7 µM | TGI [39]: 43.7 µM | TGI [40]: 28.5 µM | TGI [41]: > 59.2 µM | TGI [42]: 18.3 µM | TGI [43]: 33 µM | TGI [44]: 18.6 µM | TGI [45]: 23.7 µM | TGI [46]: > 69 µM | TGI [47]: 15.2 µM | TGI [48]: 40.5 µM | TGI [49]: 21 µM | TGI [50]: > 48.3 µM | TGI [51]: 15.9 µM | TGI [52]: 15.9 µM | TGI [53]: 19.1 µM | TGI [54]: 4.85 µM | TGI [55]: 36.8 µM | TGI [56]: > 69.2 µM | TGI [57]: > 60.3 µM | TGI [58]: > 61 µM | TGI [59]: 7.4 µM

C[N+](C)([O-])CCC=C1c2ccccc2CCc2ccccc21
TGI [1]: 67.5 µM | TGI [2]: 52.6 µM | TGI [3]: 64.9 µM | TGI [4]: 77.7 µM | TGI [5]: 36.3 µM | TGI [6]: 79.4 µM | TGI [7]: 48.2 µM | TGI [8]: > 100 µM | TGI [9]: 95 µM | TGI [10]: 33.1 µM | TGI [11]: 98.7 µM | TGI [12]: 52 µM | TGI [13]: 58.8 µM | TGI [14]: 68 µM | TGI [15]: 34.5 µM | TGI [16]: > 100 µM | TGI [17]: 40.7 µM | TGI [18]: 75.4 µM | TGI [19]: 41.2 µM | TGI [20]: 45.4 µM | TGI [21]: 30.6 µM | TGI [23]: 97 µM | TGI [24]: > 100 µM | TGI [25]: 34.9 µM | TGI [26]: 40.7 µM | TGI [27]: 86.3 µM | TGI [28]: > 100 µM | TGI [29]: 69.3 µM | TGI [30]: 70 µM | TGI [31]: 34.4 µM | TGI [32]: 36.8 µM | TGI [33]: 19.2 µM | TGI [34]: > 100 µM | TGI [35]: 54.6 µM | TGI [36]: > 100 µM | TGI [37]: > 100 µM | TGI [38]: 33.8 µM | TGI [39]: 43.6 µM | TGI [40]: 39.8 µM | TGI [41]: 59 µM | TGI [42]: 39.3 µM | TGI [43]: > 100 µM | TGI [44]: > 100 µM | TGI [45]: 62.9 µM | TGI [46]: 70.9 µM | TGI [47]: 62.3 µM | TGI [48]: > 100 µM | TGI [49]: > 100 µM | TGI [50]: 94.4 µM | TGI [51]: 34.3 µM | TGI [52]: 2.7 µM | TGI [53]: > 100 µM | TGI [54]: 65.3 µM | TGI [55]: 67.9 µM | TGI [56]: > 100 µM | TGI [58]: 48.1 µM | TGI [59]: 38.1 µM
